Measured values published in the NIST ThermoML archive (doi:10.1021/je800224k).

CCn1cc[n+](C)c1.F[P-](F)(F)(F)(F)F [1-ethyl-3-methylimidazolium hexafluorophosphate]
Details | mass density [kg/m3]
312.8 K, 10000 kPa, Crystal, Bellows volumetry | 1562
312.8 K, 20000 kPa, Crystal, Bellows volumetry | 1565
312.8 K, 30000 kPa, Crystal, Bellows volumetry | 1569
312.8 K, 40000 kPa, Crystal, Bellows volumetry | 1572
312.8 K, 50000 kPa, Crystal, Bellows volumetry | 1576
312.8 K, 60000 kPa, Crystal, Bellows volumetry | 1579
312.8 K, 70000 kPa, Crystal, Bellows volumetry | 1582
312.8 K, 80000 kPa, Crystal, Bellows volumetry | 1585
312.8 K, 90000 kPa, Crystal, Bellows volumetry | 1588
312.8 K, 100000 kPa, Crystal, Bellows volumetry | 1591
312.8 K, 110000 kPa, Crystal, Bellows volumetry | 1594
312.8 K, 120000 kPa, Crystal, Bellows volumetry | 1597
312.8 K, 130000 kPa, Crystal, Bellows volumetry | 1600
312.8 K, 140000 kPa, Crystal, Bellows volumetry | 1603
312.8 K, 150000 kPa, Crystal, Bellows volumetry | 1606
312.8 K, 160000 kPa, Crystal, Bellows volumetry | 1609
312.8 K, 170000 kPa, Crystal, Bellows volumetry | 1612
312.8 K, 180000 kPa, Crystal, Bellows volumetry | 1615
312.8 K, 190000 kPa, Crystal, Bellows volumetry | 1617
312.8 K, 200000 kPa, Crystal, Bellows volumetry | 1620
332.7 K, 10000 kPa, Crystal, Bellows volumetry | 1546
332.7 K, 20000 kPa, Crystal, Bellows volumetry | 1550
332.7 K, 30000 kPa, Crystal, Bellows volumetry | 1554
332.7 K, 40000 kPa, Crystal, Bellows volumetry | 1557
332.7 K, 50000 kPa, Crystal, Bellows volumetry | 1561
332.7 K, 60000 kPa, Crystal, Bellows volumetry | 1564
332.7 K, 70000 kPa, Crystal, Bellows volumetry | 1567
332.7 K, 80000 kPa, Crystal, Bellows volumetry | 1571
332.7 K, 90000 kPa, Crystal, Bellows volumetry | 1574
332.7 K, 100000 kPa, Crystal, Bellows volumetry | 1577
332.7 K, 110000 kPa, Crystal, Bellows volumetry | 1581
332.7 K, 120000 kPa, Crystal, Bellows volumetry | 1584
332.7 K, 130000 kPa, Crystal, Bellows volumetry | 1587
332.7 K, 140000 kPa, Crystal, Bellows volumetry | 1590
332.7 K, 150000 kPa, Crystal, Bellows volumetry | 1593
332.7 K, 160000 kPa, Crystal, Bellows volumetry | 1596
332.7 K, 170000 kPa, Crystal, Bellows volumetry | 1599
332.7 K, 180000 kPa, Crystal, Bellows volumetry | 1602
332.7 K, 190000 kPa, Crystal, Bellows volumetry | 1605
332.7 K, 200000 kPa, Crystal, Bellows volumetry | 1608
352.7 K, 10000 kPa, Liquid, Bellows volumetry | 1428
352.7 K, 20000 kPa, Liquid, Bellows volumetry | 1434
352.7 K, 30000 kPa, Liquid, Bellows volumetry | 1440
352.7 K, 40000 kPa, Liquid, Bellows volumetry | 1446
352.7 K, 50000 kPa, Liquid, Bellows volumetry | 1451
352.7 K, 60000 kPa, Liquid, Bellows volumetry | 1456
352.7 K, 70000 kPa, Liquid, Bellows volumetry | 1461
352.7 K, 80000 kPa, Liquid, Bellows volumetry | 1466
352.7 K, 90000 kPa, Liquid, Bellows volumetry | 1471
352.7 K, 100000 kPa, Crystal, Bellows volumetry | 1562
352.7 K, 110000 kPa, Crystal, Bellows volumetry | 1566
352.7 K, 120000 kPa, Crystal, Bellows volumetry | 1570
352.7 K, 130000 kPa, Crystal, Bellows volumetry | 1573
352.7 K, 140000 kPa, Crystal, Bellows volumetry | 1576
352.7 K, 150000 kPa, Crystal, Bellows volumetry | 1580
352.7 K, 160000 kPa, Crystal, Bellows volumetry | 1583
352.7 K, 170000 kPa, Crystal, Bellows volumetry | 1586
352.7 K, 180000 kPa, Crystal, Bellows volumetry | 1589
352.7 K, 190000 kPa, Crystal, Bellows volumetry | 1592
352.7 K, 200000 kPa, Crystal, Bellows volumetry | 1595
353.15 K, 101.33 kPa, Liquid, Vibrating tube method | 1421.8
372.8 K, 10000 kPa, Liquid, Bellows volumetry | 1410
372.8 K, 20000 kPa, Liquid, Bellows volumetry | 1416
372.8 K, 30000 kPa, Liquid, Bellows volumetry | 1423
372.8 K, 40000 kPa, Liquid, Bellows volumetry | 1428
372.8 K, 50000 kPa, Liquid, Bellows volumetry | 1434
372.8 K, 60000 kPa, Liquid, Bellows volumetry | 1439
372.8 K, 70000 kPa, Liquid, Bellows volumetry | 1445
372.8 K, 80000 kPa, Liquid, Bellows volumetry | 1450
372.8 K, 90000 kPa, Liquid, Bellows volumetry | 1455
372.8 K, 100000 kPa, Liquid, Bellows volumetry | 1460
372.8 K, 110000 kPa, Liquid, Bellows volumetry | 1465
372.8 K, 120000 kPa, Liquid, Bellows volumetry | 1470
372.8 K, 130000 kPa, Liquid, Bellows volumetry | 1474
372.8 K, 140000 kPa, Liquid, Bellows volumetry | 1479
372.8 K, 150000 kPa, Liquid, Bellows volumetry | 1483
372.8 K, 160000 kPa, Liquid, Bellows volumetry | 1488
372.8 K, 170000 kPa, Liquid, Bellows volumetry | 1492
372.8 K, 180000 kPa, Liquid, Bellows volumetry | 1497
372.8 K, 190000 kPa, Liquid, Bellows volumetry | 1501
372.8 K, 200000 kPa, Liquid, Bellows volumetry | 1505
373.15 K, 101.33 kPa, Liquid, Vibrating tube method | 1404.9
392.9 K, 10000 kPa, Liquid, Bellows volumetry | 1393
392.9 K, 20000 kPa, Liquid, Bellows volumetry | 1400
392.9 K, 30000 kPa, Liquid, Bellows volumetry | 1406
392.9 K, 40000 kPa, Liquid, Bellows volumetry | 1412
392.9 K, 50000 kPa, Liquid, Bellows volumetry | 1418
392.9 K, 60000 kPa, Liquid, Bellows volumetry | 1424
392.9 K, 70000 kPa, Liquid, Bellows volumetry | 1429
392.9 K, 80000 kPa, Liquid, Bellows volumetry | 1435
392.9 K, 90000 kPa, Liquid, Bellows volumetry | 1440
392.9 K, 100000 kPa, Liquid, Bellows volumetry | 1445
392.9 K, 110000 kPa, Liquid, Bellows volumetry | 1450
392.9 K, 120000 kPa, Liquid, Bellows volumetry | 1455
392.9 K, 130000 kPa, Liquid, Bellows volumetry | 1460
392.9 K, 140000 kPa, Liquid, Bellows volumetry | 1464
392.9 K, 150000 kPa, Liquid, Bellows volumetry | 1469
392.9 K, 160000 kPa, Liquid, Bellows volumetry | 1474
392.9 K, 170000 kPa, Liquid, Bellows volumetry | 1478
392.9 K, 180000 kPa, Liquid, Bellows volumetry | 1483
392.9 K, 190000 kPa, Liquid, Bellows volumetry | 1487
392.9 K, 200000 kPa, Liquid, Bellows volumetry | 1491
412.9 K, 10000 kPa, Liquid, Bellows volumetry | 1377
412.9 K, 20000 kPa, Liquid, Bellows volumetry | 1384
412.9 K, 30000 kPa, Liquid, Bellows volumetry | 1390
412.9 K, 40000 kPa, Liquid, Bellows volumetry | 1397
412.9 K, 50000 kPa, Liquid, Bellows volumetry | 1403
412.9 K, 60000 kPa, Liquid, Bellows volumetry | 1408
412.9 K, 70000 kPa, Liquid, Bellows volumetry | 1414
412.9 K, 80000 kPa, Liquid, Bellows volumetry | 1420
412.9 K, 90000 kPa, Liquid, Bellows volumetry | 1425
412.9 K, 100000 kPa, Liquid, Bellows volumetry | 1431
412.9 K, 110000 kPa, Liquid, Bellows volumetry | 1436
412.9 K, 120000 kPa, Liquid, Bellows volumetry | 1441
412.9 K, 130000 kPa, Liquid, Bellows volumetry | 1446
412.9 K, 140000 kPa, Liquid, Bellows volumetry | 1451
412.9 K, 150000 kPa, Liquid, Bellows volumetry | 1456
412.9 K, 160000 kPa, Liquid, Bellows volumetry | 1460
412.9 K, 170000 kPa, Liquid, Bellows volumetry | 1465
412.9 K, 180000 kPa, Liquid, Bellows volumetry | 1469
412.9 K, 190000 kPa, Liquid, Bellows volumetry | 1474
412.9 K, 200000 kPa, Liquid, Bellows volumetry | 1478
432.6 K, 10000 kPa, Liquid, Bellows volumetry | 1360
432.6 K, 20000 kPa, Liquid, Bellows volumetry | 1367
432.6 K, 30000 kPa, Liquid, Bellows volumetry | 1374
432.6 K, 40000 kPa, Liquid, Bellows volumetry | 1381
432.6 K, 50000 kPa, Liquid, Bellows volumetry | 1387
432.6 K, 60000 kPa, Liquid, Bellows volumetry | 1393
432.6 K, 70000 kPa, Liquid, Bellows volumetry | 1399
432.6 K, 80000 kPa, Liquid, Bellows volumetry | 1405
432.6 K, 90000 kPa, Liquid, Bellows volumetry | 1411
432.6 K, 100000 kPa, Liquid, Bellows volumetry | 1417
432.6 K, 110000 kPa, Liquid, Bellows volumetry | 1422
432.6 K, 120000 kPa, Liquid, Bellows volumetry | 1427
432.6 K, 130000 kPa, Liquid, Bellows volumetry | 1432
432.6 K, 140000 kPa, Liquid, Bellows volumetry | 1437
432.6 K, 150000 kPa, Liquid, Bellows volumetry | 1442
432.6 K, 160000 kPa, Liquid, Bellows volumetry | 1447
432.6 K, 170000 kPa, Liquid, Bellows volumetry | 1451
432.6 K, 180000 kPa, Liquid, Bellows volumetry | 1456
432.6 K, 190000 kPa, Liquid, Bellows volumetry | 1461
432.6 K, 200000 kPa, Liquid, Bellows volumetry | 1465
452.5 K, 10000 kPa, Liquid, Bellows volumetry | 1344
452.5 K, 20000 kPa, Liquid, Bellows volumetry | 1351
452.5 K, 30000 kPa, Liquid, Bellows volumetry | 1359
452.5 K, 40000 kPa, Liquid, Bellows volumetry | 1366
452.5 K, 50000 kPa, Liquid, Bellows volumetry | 1372
452.5 K, 60000 kPa, Liquid, Bellows volumetry | 1379
452.5 K, 70000 kPa, Liquid, Bellows volumetry | 1385
452.5 K, 80000 kPa, Liquid, Bellows volumetry | 1391
452.5 K, 90000 kPa, Liquid, Bellows volumetry | 1397
452.5 K, 100000 kPa, Liquid, Bellows volumetry | 1402
452.5 K, 110000 kPa, Liquid, Bellows volumetry | 1408
452.5 K, 120000 kPa, Liquid, Bellows volumetry | 1414
452.5 K, 130000 kPa, Liquid, Bellows volumetry | 1419
452.5 K, 140000 kPa, Liquid, Bellows volumetry | 1423
452.5 K, 150000 kPa, Liquid, Bellows volumetry | 1429
452.5 K, 160000 kPa, Liquid, Bellows volumetry | 1434
452.5 K, 170000 kPa, Liquid, Bellows volumetry | 1439
452.5 K, 180000 kPa, Liquid, Bellows volumetry | 1444
452.5 K, 190000 kPa, Liquid, Bellows volumetry | 1448
452.5 K, 200000 kPa, Liquid, Bellows volumetry | 1453
472.4 K, 10000 kPa, Liquid, Bellows volumetry | 1327
472.4 K, 20000 kPa, Liquid, Bellows volumetry | 1336
472.4 K, 30000 kPa, Liquid, Bellows volumetry | 1344
472.4 K, 40000 kPa, Liquid, Bellows volumetry | 1351
472.4 K, 50000 kPa, Liquid, Bellows volumetry | 1358
472.4 K, 60000 kPa, Liquid, Bellows volumetry | 1364
472.4 K, 70000 kPa, Liquid, Bellows volumetry | 1371
472.4 K, 80000 kPa, Liquid, Bellows volumetry | 1377
472.4 K, 90000 kPa, Liquid, Bellows volumetry | 1383
472.4 K, 100000 kPa, Liquid, Bellows volumetry | 1389
472.4 K, 110000 kPa, Liquid, Bellows volumetry | 1395
472.4 K, 120000 kPa, Liquid, Bellows volumetry | 1400
472.4 K, 130000 kPa, Liquid, Bellows volumetry | 1405
472.4 K, 140000 kPa, Liquid, Bellows volumetry | 1411
472.4 K, 150000 kPa, Liquid, Bellows volumetry | 1416
472.4 K, 160000 kPa, Liquid, Bellows volumetry | 1421
472.4 K, 170000 kPa, Liquid, Bellows volumetry | 1426
472.4 K, 180000 kPa, Liquid, Bellows volumetry | 1431
472.4 K, 190000 kPa, Liquid, Bellows volumetry | 1436
472.4 K, 200000 kPa, Liquid, Bellows volumetry | 1440
